The target in the test is interaction between GST-MAGEA11 MHD and FAM-PCF11_4 peptide (MAGE-A11:PCF11) (Homo sapiens (Human), UniProt P43364). Briefly: TR-FRET dose response competition assay for disruption of MAGE-A11:PCF11 binding. The text has this:
TR-FRET Assays and High-throughput Screen. Terbium-anti-GST antibody, 1 M Tris pH 7.5 1 M MgCl2 and 1 M DTT were purchased from Invitrogen (Carlsbad, CA), BSA was purchased from Sigma (St. Louis, MO). Dimethyl sulfoxide (DMSO) was purchased from Fisher Scientific (Pittsburgh, PA). Black 384-well low volume plates and 384-well polypropylene compound plates were purchased from Corning Incorporated (Tewksbury, MA). The St. Jude FDA drug and Bioactive library (11,293 chemicals), Drug-like library (10,073 chemicals) and Lead-like library (10,041 chemicals) were custom assembled and purchased from commercial sources including Sigma, Microsource (Gaylordsville, CT), selleckchem (Houston, TX), ChemDiv (San Diego, CA), ChemBridge (San Diego, CA), Enamine (Monmouth Jct., NJ), and Life Chemicals (Niagara-on-the-Lake, ON, Canada). They were arrayed (10 mM in DMSO) in 384-well polypropylene compound plates with columns 1, 2, 13 and 14 empty which were reserved for controls.
The TR-FRET assay buffer with a formula of 50 mM Tris pH 7.5, 20 mM MgCl2, 0.1 mg/ml BSA and 1 mM DTT was freshly prepared before each experiment. All TR-FRET assays were performed in black 384-well plates with 20 μl/well assay volume in the TR-FRET assay buffer at room temperature (approximately 25° C.). All peptides or compounds were solubilized in DMSO. To test the competitive activity of peptides or compounds against the interaction between GST-MAGEA11 MHD and FAM-PCF11_4 peptide, 10 μl/well peptide or compound at specified concentration was dispensed into a black 384-well low volume plate, followed by 5 μl/well FAM-PCF11_4 (800 nM), 5 μl/well Tb-anti-GST (20 nM) and GST-MAGEA11 MHD (20 nM). The assay components in each well was then mixed by shaking the plate on an IKA MTS 2/4 digital microtiter plate shaker (IKA Works; Wilmington, NC, USA) at 900 RPM for 1 minute. The plate was further centrifuged in an Eppendorf 5810 centrifuge with an A-4-62 swing-bucket rotor (Eppendorf AG, Hamburg, Germany) at 201 g (1000 rpm) for 30 seconds. The plate was then incubated for 90 min with a lid to avoid light exposure to the assay components. After incubation, the fluorescent emission signals at 520 nm and 490 nm channels of individual wells were measured with a PHERAstar FS plate reader (BMG Labtech; Durham, NC, USA) by using a 340 nm excitation filter, 100 μs delay time, and 200 μs integration time. The TR-FRET fluorescence emission ratio (TR-FRET signal) for each well was presented as 10 000×520 nm/490 nm, which was used directly for curve fitting, or further converted to % Inhibition based on the respective positive and negative controls. The graphic software GraphPad Prism 4.81 (GraphPad Software; La Jolla, CA, USA) was used to generate curves and derive IC50 values of tested peptides or compounds, if applicable.
TR-FRET inhibitory activity characterization of a panel of PCF11 peptides against the interaction between GST-MAGEA11 MHD and FAM-PCF11_4 was performed as follows. In a 20 μl/well assay volume, dilutions of PCF11_1 to PCF11_8 peptides (concentrations ranged from 3.1 nM to 100 μM for peptides PCF11_4, PCF11_5, PCF11_6 and PCF11_8 in a 1-to-2 dilution pattern for 16 concentration levels, and ranged from 48.9 nM to 100 μM for peptides of PCF11_1, PCF11_2, PCF11_3 and PCF11_7 in a 1-to-2 dilution pattern for 12 concentration levels), 200 nM FAM-PCF11_4, 5 nM Tb-anti-GST and 5 nM GST-MAGEA11 were mixed together and incubated for 90 min before the TR-FRET signal for each well was measured. The final DMSO concentration was 1.1% (v/v). […] The signal of each peptide-treated well (Signalpeptide) was normalized to the positive and negative controls to derive % inhibition of the peptide at a specific concentration with equation 1. Where applicable, the % Inhibition data were fit into a Sigmoidal dose response equation to derive IC50 values.
TR-FRET screen for identifying MAGEA11 small molecule inhibitors was performed as follows.
In general terms: TR-FRET usually uses a lanthanide donor and a delayed reading to cut background.

[1] abbreviates: Dose response TR-FRET screening of nine scaffold groups against MAGE-A11:PCF11, read-out: consensus IC50.
[2] abbreviates: Table 8, representative compounds, read-out: TR-FRET IC50.

Read-outs that look alike come from different tables or passages of the source. Some results are limits rather than exact numbers.

One may read the IC50 as the concentration that gives 50% inhibition.

Chain of interaction between GST-MAGEA11 MHD and FAM-PCF11_4 peptide (MAGE-A11:PCF11) (P43364 218-429): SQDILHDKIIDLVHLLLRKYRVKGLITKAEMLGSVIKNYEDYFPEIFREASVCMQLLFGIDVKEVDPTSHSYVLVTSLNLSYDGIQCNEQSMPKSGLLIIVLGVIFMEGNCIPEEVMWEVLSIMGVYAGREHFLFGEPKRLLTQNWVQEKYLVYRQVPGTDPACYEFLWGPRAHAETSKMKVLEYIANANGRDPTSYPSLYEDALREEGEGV

Regarding `COc1ccc(OC)c(Nc2nc(N)c3ccccc3n2)c1` [SJ000202008-1], the IC50 under setting [1] stood at 69.9 µM.
The same measure, in the same setting: in the case of `Cc1ccc(Nc2nc(N)c3ccccc3n2)cc1C` [SJ000202381-1] it was 69.9 µM; in that of `CCN1CCN(c2nc(N)c3ccccc3n2)CC1` [SJ000202571-1], 69.9 µM; in that of `CC(C)c1ccc(-c2nc3c(=O)n(C)c(=O)n(C)c3[nH]2)cc1` [SJ000203904-1], 69.9 µM.
Still for that read-out and setting: in the case of `CCCOc1ccc(-c2nc3c(=O)n(C)c(=O)n(C)c3[nH]2)cc1` [SJ000205042-1] it was 69.9 µM; in that of `O=S(=O)(c1ccccc1)c1nc(-c2ccc(Cl)cc2)oc1N1CCOCC1` [SJ000230691-1], 69.9 µM.
The same measure, in the same setting: in the case of `O=S(=O)(c1ccc(Cl)cc1)c1nc(-c2ccc(Cl)cc2)oc1N1CCOCC1` [SJ000230692-1] it was 69.9 µM; in that of `Cc1ccc(S(=O)(=O)c2nc(-c3ccc(Cl)cc3)oc2N2CCOCC2)cc1` [SJ000230693-1], 69.9 µM; in that of `Cc1ccc(S(=O)(=O)c2nc(-c3ccc(F)cc3)oc2N2CCOCC2)cc1` [SJ000230854-1], 11.7 µM.
For the compound `Cc1ccc(S(=O)(=O)c2nc(-c3ccc(Br)cc3)oc2N2CCOCC2)cc1` [SJ000230855-1], the IC50 under setting [1] was determined as 69.9 µM.
Still for that read-out and setting: in the case of `Cc1ccc(S(=O)(=O)c2nc(-c3ccccc3Cl)oc2N2CCOCC2)cc1` [SJ000230856-1] it was 4.34 µM; in that of `O=C1C(Cl)=C(N2CCOCC2)C(=O)c2ccccc21` [SJ000242799-1], 69.9 µM.
On the same count and under the same terms, in the case of `O=S(=O)(c1ccccc1)c1nc(-c2ccc(Br)cc2)oc1N1CCOCC1` [SJ000244320-1] it was 8.63 µM.
For the compound `CC(NC1=C(Cl)C(=O)c2ccccc2C1=O)C(=O)O` (centres unmarked) [SJ000244608-1], the IC50 under setting [1] worked out at 69.9 µM.
Same read-out and setting: in the case of `CC(C)C(NC1=C(Cl)C(=O)c2ccccc2C1=O)C(=O)O` (centres unmarked) [SJ000244609-2] it was 587 µM; in that of `COc1ccc(-c2nc(S(=O)(=O)c3ccc(C)cc3)c(N3CCOCC3)o2)cc1` [SJ000245271-1], 69.9 µM.
For `COc1ccc(OC)c2c(O)c(CN3CCCCC3C)c(C)nc12` (centres unmarked) [SJ000280708], the IC50 under setting [2] is more than 69.9 µM.
Still for that read-out and setting: in the case of `COc1ccc(OC)c2c(O)cc(C)nc12` [SJ000284975] it was more than 69.9 µM.
Take `CS(=O)(=O)c1ccc(C2=C(c3ccccc3)C(=O)OC2)cc1` [SJ000285362-5]: the IC50 under setting [1] is 67.6 µM.
With `CC[C@@]1(O)C(=O)OCc2c1cc1n(c2=O)Cc2cc3ccccc3nc2-1` [SJ000285410], the IC50 under setting [2] is more than 55.2 µM.
Same read-out and setting: in the case of `Nc1c2ccccc2nc2ccccc12` [SJ000285450] it was more than 75.5 µM.
Regarding `COc1cc(NC(C)CCCN)c2ncccc2c1` (centres unmarked) [SJ000285544], the IC50 under setting [2] came to 19 µM.
Regarding `COc1cc2nc(N(C)CCCNC(=O)C3CCCO3)nc(N)c2cc1OC` (centres unmarked) [SJ000286094-9], the IC50 under setting [1] is 36.2 µM.
As for `C=CCn1c(=O)c2c(nc(-c3ccc(S(=O)(=O)O)cc3)n2C)n(C)c1=O` [SJ000287614-4], the IC50 under setting [1] amounted to 75.1 µM.
On the same count and under the same terms, in the case of `Cn1c(=O)c2nc(-c3ccc(S(=O)(=O)O)cc3)[nH]c2n(C)c1=O` [SJ000287642-4] it was 21.8 µM; in that of `CCCn1c(=O)c2nc(-c3ccc(S(=O)(=O)O)cc3)[nH]c2n(CCC)c1=O` [SJ000287650-2], 69.9 µM.
Turning to `CCCn1c(=O)c2nc(-c3ccc(OCC(=O)Nc4ccc(C#N)cc4)cc3)[nH]c2n(CCC)c1=O` [SJ000287997-2], the IC50 under setting [1] worked out at 69.9 µM.
On the same count and under the same terms, in the case of `Cn1c(=O)c2nc(-c3ccccc3)[nH]c2n(C)c1=O` [SJ000288094-2] it was 69.9 µM; in that of `COc1cc2nc(N3CCN(C(=O)OCc4ccccc4)C(C(=O)NC(C)(C)C)C3)nc(N)c2cc1OC` (centres unmarked) [SJ000288233-2], 69.9 µM.
Still for that read-out and setting: in the case of `CCCn1c(=O)c2nc(-c3ccc(OCC(=O)NCCN)cc3)[nH]c2n(CCC)c1=O` [SJ000288288-2] it was 69.9 µM; in that of `Cn1c2ccccc2c2cc(C3Nc4ccccc4C(=O)N3Cc3ccccc3)ccc21` (centres unmarked) [SJ000288408-1], 69.9 µM.
The same measure, in the same setting: in the case of `CCCN1C(=O)c2ccccc2NC1c1cccc(F)c1` (centres unmarked) [SJ000288416-1] it was 69.9 µM.
On to `COc1ccc(C2Nc3ccccc3C(=O)N2Cc2ccccc2)cc1Cn1nc(C)c([N+](=O)[O-])c1C` (centres unmarked) [SJ000288419-1], for which, under setting [1], the IC50 turned out to be 69.9 µM.
Still for that read-out and setting: in the case of `CCCN1C(=O)c2ccccc2NC1c1ccc(C)cc1` (centres unmarked) [SJ000288423-2] it was 69.9 µM.
On the same count and under the same terms, in the case of `CCCN1C(=O)c2ccccc2NC1c1ccc(Cl)cc1Cl` (centres unmarked) [SJ000288424-2] it was 69.9 µM; in that of `CCCN1C(=O)c2ccccc2NC1c1ccc(OC)c(COc2ccc([N+](=O)[O-])cc2)c1` (centres unmarked) [SJ000288430-1], 69.9 µM; in that of `CCOc1cc(C2Nc3ccccc3C(=O)N2Cc2ccccc2)ccc1O` (centres unmarked) [SJ000288432-1], 69.9 µM.
On the same count and under the same terms, in the case of `COc1ccc(C2Nc3ccccc3C(=O)N2Cc2ccccc2)cc1Cn1cc([N+](=O)[O-])cn1` (centres unmarked) [SJ000288433-1] it was 69.9 µM; in that of `CCCN1C(=O)c2ccccc2NC1c1ccc(OC)c(CSc2ccccn2)c1` (centres unmarked) [SJ000288444-1], 69.9 µM; in that of `CCCN1C(=O)c2ccccc2NC1c1ccccc1F` (centres unmarked) [SJ000288611-1], 69.9 µM.
As to `O=C1c2ccccc2NC(c2ccc3c(c2)OCO3)N1Cc1ccccc1` (centres unmarked) [SJ000288627-1], the IC50 under setting [1] was found to be 69.9 µM.
Same read-out and setting: in the case of `COc1ccc(C2Nc3ccccc3C(=O)N2Cc2ccccc2)cc1Cn1nc(C)c(Cl)c1C` (centres unmarked) [SJ000288637-1] it was 69.9 µM; in that of `CCCN1C(=O)c2ccccc2NC1c1ccc2c(c1)OCO2` (centres unmarked) [SJ000288667-1], 69.9 µM; in that of `CC(=O)N(C)C1=C(Cl)C(=O)c2ccccc2C1=O` [SJ000290718-2], 69.9 µM.
The same measure, in the same setting: in the case of `NC1=C(N2CCCCC2)C(=O)c2ccccc2C1=O` [SJ000294373-2] it was 20.1 µM.
As to `CCCN1C(=O)c2ccccc2NC1c1c(Cl)cccc1Cl` (centres unmarked) [SJ000295321-1], the IC50 under setting [1] worked out at 69.9 µM.
On the same count and under the same terms, in the case of `COc1ccc(C2Nc3ccccc3C(=O)N2Cc2ccccc2)cc1COc1ccccc1F` (centres unmarked) [SJ000295328-2] it was 69.9 µM; in that of `COc1ccc(C2Nc3ccccc3C(=O)N2Cc2ccccc2)cc1CN1C(=O)c2ccccc2C1=O` (centres unmarked) [SJ000295698-1], 69.9 µM; in that of `COc1cccc(OCc2cc(C3Nc4ccccc4C(=O)N3Cc3ccccc3)ccc2OC)c1` (centres unmarked) [SJ000295704-1], 69.9 µM.
Turning to `CCCN1C(=O)c2ccccc2NC1c1ccc(O)c(OC)c1` (centres unmarked) [SJ000295722-1], the IC50 under setting [1] was found to be 69.9 µM.
With `CCCN1C(=O)c2ccccc2NC1c1ccc(OC)c(COc2ccccc2F)c1` (centres unmarked) [SJ000295736-1], the IC50 under setting [1] came out at 69.9 µM.
As for `CCCN1C(=O)c2ccccc2NC1c1ccc(OC)c(COc2ccc([N+](=O)[O-])c(C)c2)c1` (centres unmarked) [SJ000295745-1], the IC50 under setting [1] came to 69.9 µM.
Regarding `CCCN1C(=O)c2ccccc2NC1c1ccc(Cl)c(Cl)c1` (centres unmarked) [SJ000296071-1], the IC50 under setting [1] was 69.9 µM.
Still for that read-out and setting: in the case of `Cc1nc2cc(-c3ccccc3)sc2c(=O)n1N` [SJ000296471-1] it was 69.9 µM; in that of `COc1ccc(-c2cc3nc[nH]c(=O)c3s2)cc1` [SJ000296726-1], 69.9 µM.
As for `CC(=O)N(C1=C(Cl)C(=O)c2ccccc2C1=O)c1ccc(Cl)cc1` [SJ000296883-2], the concentration for half-maximal inhibition (IC50) under setting [1] turned out to be 69.9 µM.

The values above are taken from patent US20240246941A1, “SUBSTITUTED 4-(3-AMINOPROP-1-YL)AMINOQUINOLINE ANALOGS AS MODULATORS OF MELANOMA-ASSOCIATED ANTIGEN 11 UBIQUITIN LIGASE” (ST. JUDE CHILDREN'S RESEARCH HOSPITAL, INC., priority 2020, published 2024).
